Results from patent US20250319115A1, “Compositions and Methods for Modulating Cytokines” (Flagship Pioneering Innovations VII, LLC, priority 2022, published 2025).

Tested on: CD3/CD28 (TransAct) activated PBMCs
Assay: PBMC cytokine release by Cytometric BeadArray, Inhibition format (peptide with anti-CD3/CD28 T-cell activator)
Format: cell-based, human
Design: key to Inhibition by Analyte: IL-1b / Inhibition by Analyte: IL-2 / Inhibition by Analyte: TNF / Inhibition by Analyte: IP-10 / Inhibition by Analyte: IL-10: X = a hit with significant activation or inhibition of relevant cytokine release
Conditions: CD3/CD28 (TransAct) activated PBMCs, FIG. 7
Protocol: (§1) Peripheral Blood Mononuclear Cells were seeded+/−the T-cell activator […] and +/−peptides for 24-48 hours. Cytokines were measured from the supernatant after incubation by CBA Cytometer.
(§2) Thawing PBMCs: PBMCs were thawed by pre-warming TexMACS media (Miltenyi Biotech) in 20 ml aliquots-1-50 ml conical per donor. After the media was warmed to 37° C., cells were removed from liquid nitrogen and brought to the tissue culture hood. For each donor, 1 ml of media from the warmed aliquot was added to the frozen vial and mixed up and down. The media plus thawed cells were then added back to the 50 ml conical. This was repeated until all the cells were thawed and added to the 50 ml tube. Continue with other donors if used. Spin cells for 5 min at 400×g. Supernatant was aspirated and cells resuspended at ˜10*10^6 cells/ml (see vial for cell number).
(§3) PBMC Plating: Frozen PBMCs from normal, healthy, human volunteers (StemCell Technologies) were thawed and plated at 250,000 cells/well. After PBMCs were thawed and resuspended at […], cells were then counted (Countess III, Thermo Scientific) and adjusted based on counts to […]. Take the number of PBMCs determined by number of wells for the experiment, for example, 10 wells would need 2.5*10^6 cells total or 0.250 ml. The cells needed for the experiment are then transferred to another conical tube. Warmed TexMACS media is added so that the final concentration is 250,000 cells/190 ul media, for example, 10 wells would need 1.9 ml (190 ul×10 wells) of media total minus 0.250 ml of cells (1.9 ml-0.250 ml) or 1.65 ml of media added to the 0.250 ml of cells. Add 190 ul of cells plus media to the 96 well U-bottom plate. Place in incubator until dilutions are made and ready.
(§4) Peptide Dilutions: Ideally, all peptides should be at a starting concentration of at least 10 mM, especially for those in DMSO (ATCC) to reach a final concentration of 1 uM (H2O) or 0.5 uM (DMSO). Dilutions of all test articles should be made at 20× the final concentration, for example, a final concentration of 1 uM peptide would need to be made at 20 uM.
(§5) Reagent Dilution: Dilutions are made in TexMACS media, enough for 10 ul/well in triplicate (30 ul of a 20×). Activator—CD3/CD28 (TransAct; Miltenyi Biotech) or cytokine will be at 21× and added after the 45-minute incubation with peptides. Be sure to include relevant controls—Positive: TransAct+Cells, Negative: Vehicle+Cells. Dilutions should also be made in a ultra-low binding plate (Corning).
(§6) Assay Procedure: Peptide Treatment: Start assay by thawing the cells and plating in a 96 well, U-bottom tissue culture plate (Corning) as described above. Cell plates are placed in a tissue culture incubator (5% CO2, 37° C.). While cells are in the incubator, start making dilutions (optimally 1 hr or less) as described above. Cell plates are removed from the incubator and 10 ul of the 20× dilutions are added to the relevant wells. After the addition of inhibitors, cell plates are placed in the tissue culture incubator for 45 minutes. The plates are removed from the incubator and 10 ul of 21× TransAct is added to the relevant wells*. Plates are then returned to the incubator and incubated for 24 hours. After 24 hours, plates are spun for 5 minutes at 400×g.
(§7) * Activation: This assay can be run in two different formats—Activation and Inhibition. The procedure is the same except no TransAct is needed in the peptide wells for Activation. TransAct is only needed in the control wells. The purpose of this procedure is to determine the possible response from peptides alone.
(§8) Cytometric BeadArray (CBA): After the spin, supernatants (˜150 ul) are transferred to a new, ultra-low binding U-bottom plate. Supernatants are then frozen at −20° C. until thawed for CBA (BD) to determine levels of human IL-2, TNFα, IL-1b, IP-10, IL-10, and IFNg. CBA was run according to the manufacturers protocol.

Row | Molecule | release of TNF-alpha from activated PBMCs
1 | SEQ ID NO: 3585: target protein, anti-inflammatory cytokine modulator, secreted peptide (VAEPRRGHLKAALASLGGAAPAAATNGSPPLFK; listed as Homo sapiens) | significantly blocks

Same assay, conditions: CD3/CD28 (TransAct) activated PBMCs, FIG. 8

Row | Molecule | release of IL-1b from activated PBMCs
2 | SEQ ID NO: 3585: target protein, anti-inflammatory cytokine modulator, secreted peptide (VAEPRRGHLKAALASLGGAAPAAATNGSPPLFK; listed as Homo sapiens) | does not block

Same assay, conditions: peptide applied with anti-CD3/CD28 T-cell activator, 24 hours, supernatant CBA

Row | Molecule | Inhibition by Analyte: IL-1b | Inhibition by Analyte: IL-2 | Inhibition by Analyte: IP-10 | Inhibition by Analyte: TNF | Inhibition by Analyte: IL-10
3 | SEQ ID NO: 1184: target protein of the Sequence Listing, synthesized peptide (LEMEGGCSPPIPHAGHRWKCQTVRVHA; listed as Homo sapiens) | X | X | X | X | 
4 | SEQ ID NO: 3585: target protein, anti-inflammatory cytokine modulator, secreted peptide (VAEPRRGHLKAALASLGGAAPAAATNGSPPLFK; listed as Homo sapiens) | X | X |  | X | 
5 | SEQ ID NO: 4174: target protein of the Sequence Listing, secreted peptide (MRSPLSASALLLWSSSVARAFSSPSLLMAVPSPTCSRY; listed as Homo sapiens) | X |  | X | X | X
6 | SEQ ID NO: 4615: target protein of the Sequence Listing, secreted peptide (MTAFGLGIPTFLVMQPSGSQPRFPALTQNGVALVRTPLTSVYLRVRICRVLGPRSQPS; listed as Homo sapiens) | X |  |  | X | 
7 | SEQ ID NO: 5627: target protein of the Sequence Listing, secreted peptide (MSEVATLLFSQTALASLESVHPAGHKLWMRNLRQVTSP; listed as Homo sapiens) |  | X |  | X | 
8 | SEQ ID NO: 5843: target protein of the Sequence Listing, secreted peptide (MGGKSWLFFYSLVFCALLPLPRREDPFKLF; listed as Homo sapiens) | X |  |  |  | 
9 | SEQ ID NO: 5862: target protein of the Sequence Listing, secreted peptide (MESRTLLLLFSGAVALIQTWADYNYNQGRNDLIFTLQLWKRQ; listed as Homo sapiens) | X |  |  |  | 
10 | SEQ ID NO: 6518: target protein of the Sequence Listing, secreted peptide (MSFDHPEKNGPWPADPINLPSHG; listed as Homo sapiens) |  | X |  | X | 

Tested on: Peripheral Blood Mononuclear Cells
Assay: PBMC cytokine release by Cytometric BeadArray, Activation format (peptide applied to PBMCs alone)
Format: cell-based, human
Design: key: X = a hit with significant activation or inhibition of relevant cytokine release
Conditions: 24 hours, supernatant CBA
Protocol: as §1, §2, §3, §4, §5, §6, §7, §8

Row | Molecule | Activation by Analyte: IP-10 | Activation by Analyte: IL-10 | Activation by Analyte: IL-2 | Activation by Analyte: IL-1b
11 | SEQ ID NO: 3462: target protein of the Sequence Listing, secreted peptide (METSCSLWVSSELFCRSVKVFFCLLALHLSALPHSSWTQDKNLGLAGMVELK; listed as Homo sapiens) | X |  |  | 
12 | SEQ ID NO: 4615: target protein of the Sequence Listing, secreted peptide (MTAFGLGIPTFLVMQPSGSQPRFPALTQNGVALVRTPLTSVYLRVRICRVLGPRSQPS; listed as Homo sapiens) | X | X |  | 
13 | SEQ ID NO: 5730: target protein of the Sequence Listing, secreted peptide (MVSHRKDWRRVNLRFSSCLLLSICLDDKPSADELCFWTDHGRSQLTCPSLGVSQGHARSS; listed as Homo sapiens) | X |  |  | 
14 | SEQ ID NO: 5848: target protein of the Sequence Listing, secreted peptide (MARPLSLAAAGAPDLLFTALCSLLIEAQPLRPFDLQVLGDPQPRARTP; listed as Homo sapiens) |  |  | X | 
15 | SEQ ID NO: 6295: target protein of the Sequence Listing, secreted peptide (MWWKTPCWWTPSTTATSSSAEARSCGRLLKSMAG; listed as Homo sapiens) | X |  |  | 
16 | SEQ ID NO: 4566: target protein of the Sequence Listing, secreted peptide (peptide, listed as Homo sapiens) LRPRSAAFAPRYTRLVMRRSSRSFRLQCTGFPSSSAQSISAHLSNSMPSSLLTISRCPGMFAVRCPL | X |  |  | 
17 | SEQ ID NO: 3169: target protein of the Sequence Listing, secreted peptide (peptide, listed as Homo sapiens) MCHKGWHGPGVPHHVAFTPCKARLRPATQCQAHSSPRRKMVQAGSIPLAAASGRLCLTHAGWWRGAS | X |  |  | 
18 | SEQ ID NO: 5537: target protein of the Sequence Listing, secreted peptide (peptide, listed as Homo sapiens) MQRLPAAFFRSFAAQGLGESVHINTPTSLSLRGRPFISSSGPGARARVTCAPCLHAARILCCFWRGLHR | X |  |  | 
19 | SEQ ID NO: 3494: target protein of the Sequence Listing, secreted peptide (peptide, listed as Homo sapiens) MSYLPTNPPGSILTCWLGVSLGSHRSARGGSTIYGRLLPRRKDVWFSQAKDVPKYRGLLYLQS | X |  |  | 
20 | SEQ ID NO: 6517: target protein of the Sequence Listing, secreted peptide (peptide, listed as Homo sapiens) VALSLLTSQGRQRRAGPSTAFAALPATVATFSAMTESESLRTSRHADTALARVRRGAKFRGQARTRYCARARSHRFTPPSGA | X |  |  | 
21 | SEQ ID NO: 5631: target protein of the Sequence Listing, secreted peptide (peptide, listed as Homo sapiens) MMAQKSKFRVLFMSDPHGTAMPLTSAILESSRASLAAKQEDKCFTDIRNLKWKHFLEHTKQPP | X |  |  | 
22 | SEQ ID NO: 5931: target protein of the Sequence Listing, secreted peptide (peptide, listed as Homo sapiens) MSCGSRRGPSLASSLAWLQLQSGTRPFCSSSPPYFLSHGRRIPFSHPRKESALRATKEPRTHRTNTSLADLPSPAPAHL |  |  |  | X
